Measured values published in patent US9023797B2 (priority 2012, dated 2015).

Tested on: Virus
Assay: Design of Experiment study of viral inactivation process variables
Type: cell-based
Details: 30 mM caprylate, albumin 5%, pH 4.4, 40° C., 120 min

`CCCCCCCC(=O)O` [caprylate, octanoic acid] was tested, and the “predicted LRV (equivalent of 100%)” value was 2.16 and the “predicted LRV on the 0 to 100 scale (maximized)” value was 100%.
